Data published in PubChem BioAssay (NCI).
Where “and” joins values, the source holds several entries; their conditions need not be identical. Equal entries are not always repeated.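 Cultured in 96-well plates, cells were exposed to test compound for 48 hours across five concentrations. The concentration for 50% growth inhibition is given as GI50. At the TGI there is no net growth.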

Experiments:
Assay in all cases: NCI tumour cell line growth inhibition, 48 h
MDA-MB-435 = tested on: MDA-MB-435
COLO 205 colon = tested on: COLO 205 colon
LXFL 529 NSCLC = tested on: LXFL 529 NSCLC
KM20L2 colon = tested on: KM20L2 colon
MDA-N = tested on: MDA-N
MALME-3M melanoma = tested on: MALME-3M melanoma
UO-31 renal = tested on: UO-31 renal
DMS 273 small cell lung = tested on: DMS 273 small cell lung
SNB-78 CNS = tested on: SNB-78 CNS
M19-MEL melanoma = tested on: M19-MEL melanoma
EKVX NSCLC = tested on: EKVX NSCLC
OVCAR-5 ovarian = tested on: OVCAR-5 ovarian
SK-OV-3 ovarian = tested on: SK-OV-3 ovarian
RPMI-8226 leukemia = tested on: RPMI-8226 leukemia
BT-549 breast = tested on: BT-549 breast
PC-3 prostate = tested on: PC-3 prostate

SMILES | GI50 (MDA-MB-435) [µM] | GI50 (COLO 205 colon) [µM] | TGI (COLO 205 colon) | TGI (LXFL 529 NSCLC) [µM] | TGI (KM20L2 colon) [µM] | GI50 (MDA-N) [µM] | TGI (MALME-3M melanoma) | GI50 (UO-31 renal) [µM] | TGI (DMS 273 small cell lung) [µM] | TGI (SNB-78 CNS) [µM] | TGI (M19-MEL melanoma) [µM] | TGI (EKVX NSCLC) [µM] | TGI (OVCAR-5 ovarian) [µM] | TGI (SK-OV-3 ovarian) [µM] | TGI (UO-31 renal) [µM] | TGI (RPMI-8226 leukemia) [µM] | TGI (MDA-MB-435) [µM] | TGI (BT-549 breast) [µM] | TGI (PC-3 prostate) [µM] | TGI (MDA-N) [µM]
CC[C@]1(O)C[C@H]2CN(CCc3c([nH]c4ccccc34)[C@@](C(=O)OC)(c3cc4c(cc3OC)N(C=O)[C@H]3[C@@](O)(C(=O)OC)[C@H](OC(C)=O)[C@]5(CC)C=CCN6CC[C@]43[C@@H]65)C2)C1 | 0.0122 | 0.00159 | 0.0463 µM and 0.22 µM | 7.81 | 0.206 | < 0.001 | 6.23 µM and 32 µM and 58.1 µM | 0.476 | 3.13 | 109 | 169 | – | – | – | – | – | – | – | – | –
CCNC(C)Cc1ccccc1 (centres undefined) | – | – | > 100 µM | > 100 | > 100 | – | > 100 µM | – | > 100 | > 100 | – | > 100 | > 100 | > 100 | > 100 | > 100 | – | – | – | –
CCC(C)n1c(C)nc2c1C(=O)c1ccccc1C2=O (centres undefined) | – | – | > 100 µM | > 100 | > 100 | – | 77.9 µM | – | > 100 | > 100 | 37.5 | > 100 | – | > 100 | > 100 | – | – | – | – | –
OC1[C@H]([C@H]2CCCC[C@@H]2O)CCC[C@@H]1[C@@H]1CCCC[C@H]1O (some centres undefined) | – | – | > 100 µM | > 100 | > 100 | – | > 100 µM | – | > 100 | > 100 | > 100 | > 100 | > 100 | > 100 | > 100 | > 100 | – | – | – | –
CC(=O)OC12/C(=N/O)CCCCCC1c1ccccc12 (centres undefined) | – | – | > 100 µM | > 100 | > 100 | – | > 100 µM | – | > 100 | > 100 | > 100 | > 100 | – | > 100 | > 100 | > 100 | – | – | – | –
Cc1ccc(S(=O)(=O)c2c(N)c3nc4ccccc4n3c3nc4ccccc4nc23)cc1 | – | – | > 100 µM | > 100 | > 100 | – | > 100 µM | – | > 100 | – | > 100 | > 100 | > 100 | > 100 | > 100 | > 100 | – | – | – | –
C=C(CN(C)C)C(=O)c1ccccc1C | – | – | 31.9 µM | 30.7 | > 100 | – | 36 µM | – | 75.8 | > 100 | 53.5 | > 100 | > 100 | > 100 | > 69.2 | 48.6 | – | – | – | –
NC(=O)c1nnc2ccc(F)cc2c1N | – | – | > 100 µM | – | – | – | > 100 µM | – | – | – | – | > 100 | > 100 | > 100 | > 100 | > 100 | > 100 | > 100 | > 100 | > 100
COC(=O)CCc1cc(OC)c(O)c(C(Cc2ccc(OC)c(OC)c2)C(=O)OC)c1 (centres undefined) | – | – | > 100 µM | – | – | – | > 100 µM | – | – | – | – | > 100 | > 100 | > 100 | > 100 | > 100 | > 100 | > 100 | > 100 | > 100
Cc1cc(N(CCC#N)CCC#N)ccc1/C(N=Nc1ccc(Cl)cc1)=N\NC(=O)c1cc(Cl)ccc1O | – | – | > 100 µM | – | – | – | > 100 µM | – | – | – | – | > 100 | > 100 | 97.9 | > 100 | > 100 | > 100 | > 100 | > 100 | > 100
N#Cc1c(N2CCCC2)nsc1NCc1ccccc1 | – | – | > 100 µM | – | – | – | > 100 µM | – | – | – | – | > 100 | > 100 | > 100 | 65 | > 100 | > 100 | > 100 | > 100 | > 100
CN(C)C(Cc1cnc[nH]1)C(=O)N1CCCC1C(N)=O (centres undefined) | – | – | > 100 µM | – | – | – | > 100 µM | – | – | – | – | > 100 | > 100 | > 100 | > 100 | > 100 | > 100 | > 100 | > 100 | > 100
CN(C)CCOc1cccc2c1C(=O)c1ccccc1C2=O | – | – | 16.1 µM | 43.6 | 46.8 | – | 26.5 µM | – | 21.7 | 38.2 | 17.9 | 34.6 | 40.8 | 81.2 | 45.2 | – | – | – | – | –
CCc1ccc(N=Cc2cc(OC)c(OC)c(OC)c2)cc1 | – | – | > 100 µM | > 100 | > 100 | – | > 100 µM | – | > 100 | > 100 | > 100 | > 100 | > 100 | > 100 | > 100 | 47.2 | – | – | – | –
CC1(C)CCC[C@@]2(C)C1CCC1(C)C(CCc3ccoc3)/C(=C/OS(=O)(=O)O)CCC12 (some centres undefined) (tested in a mixture with another compound) | – | – | > 100 µM | > 100 | > 100 | – | > 100 µM | – | > 100 | > 100 | > 100 | > 100 | > 100 | > 100 | > 100 | > 100 | – | – | – | –
CC(=N\N)/C(C)=N/N=C(C)/C(C)=N/N=C(C)/C(C)=N/N=C(C)/C(C)=N/N | – | – | > 100 µM | – | – | – | > 100 µM | – | – | – | – | > 100 | > 100 | > 100 | > 100 | > 100 | > 100 | > 100 | > 100 | > 100
O=C(/C=C/c1ccc(OCCCOc2ccc(/C=C/C(=O)c3ccccc3)cc2)cc1)c1ccccc1 | – | – | > 100 µM | > 100 | > 100 | – | > 100 µM | – | > 100 | – | > 100 | > 100 | – | – | > 100 | > 100 | – | – | – | –
COc1ccc(/C=C2\CCC(C)C3=C(c4ccc(OC)c(OC)c4)C(C#N)=C(N)OC32)cc1OC (centres undefined) | – | – | 7.74 µM | – | – | – | 32.2 µM | – | – | – | – | 8.12 | 23.6 | 36.4 | 8.4 | 5.76 | 10.1 | 24.5 | 38.1 | 12.1
Cc1cc(N(CCC#N)CCC#N)ccc1/C=C1N=C(/C=C\c2ccccc2)OC\1=O | – | – | > 100 µM | > 100 | > 100 | – | > 100 µM | – | > 100 | > 100 | > 100 | > 100 | > 100 | > 100 | > 100 | > 100 | – | – | – | –
CCOC(=O)CN1C(=O)c2c(c(C)n(-c3ccccc3)c2C)C1=O | – | – | > 100 µM | – | – | – | > 100 µM | – | – | – | – | > 100 | > 100 | > 100 | > 100 | > 100 | > 100 | > 100 | > 100 | > 100
Cc1cccc(C(C)C)c1NC(=O)C(=O)CC(=O)c1sc(Nc2ccccc2Cl)nc1C | – | – | > 100 µM | – | – | – | > 100 µM | – | – | – | – | > 100 | > 100 | > 100 | > 100 | > 100 | 33.2 | 93.2 | > 100 | 54.6
CCC(C#N)(c1ccccc1)N(CCc1ccccc1)C(=O)c1ccccc1 (centres undefined) | – | – | > 100 µM | – | – | – | > 100 µM | – | – | – | – | > 100 | > 100 | 82.7 | > 100 | > 100 | > 100 | > 100 | > 100 | > 100
